Source: patent publication US10500207B2, “Compounds for the treatment of diseases associated with amyloid or amyloid-like proteins” (AC Immune SA, priority 2010, dated 2019)

Biological target: Aβ1-42 peptide (Homo sapiens, UniProt P05067)
Assay: Thioflavin T spectrofluorescence assay (ThT-assay): inhibition of Aβ1-42 aggregation (% inhibition at 330 μM; IC50 from dilution series)
Details: for IC50: dilution series 330 μM to 0.08 μM; for inhibition at 330 µM: 24 h, read-out: Inhibition at 330 μM [%], ThT assay
[1] = 330 μM small molecule, 33 μM Aβ1-42 (10:1), 24 hrs at 37° C., mean ± standard deviation of two independent experiments

Aβ1-42 peptide, sequence (P05067 672-713 limits assumed): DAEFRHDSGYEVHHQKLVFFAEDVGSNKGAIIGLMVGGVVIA
Description: Aβ1-42 lyophilized powder (Bachem) was reconstituted in hexafluoroisopropanol (HFIP) to 1 mM. The peptide solution was sonicated for 15 min at room temperature, agitated overnight, and aliquots were made into non-siliconized microcentrifuge tubes. The HFIP was then evaporated under a stream of argon. The resulting peptide film was dried under vacuum for 10 min, tightly sealed and stored at −80° C. until used.
A positive control without a small molecule was prepared to measure maximum RFU. A negative control without Aβ1-42 was prepared for each small molecule. […] The solutions were then incubated for 24 hrs at 37° C., and the spectrofluorescence (relative fluorescence units; RFU) were read in six replicates in black 384-well assay plates (Perkin-Elmer) on a Perkin-Elmer FluoroCount spectrofluorometer. The inhibition of aggregation is expressed as mean % inhibition±1 standard deviation (SD) according to the following equation:
Racemic compounds and their enantiomers were tested for their ability to inhibit amyloid peptide aggregation using the ThT assay. To determine the IC50, the following dilutions of the compounds were used in the ThT assay described above:

SMILES | inhibition at 330 µM [1] | also measured
CNC1CCc2c(c3ccc(Nc4ccc(F)c(F)c4)nc3n2C)C1 (single isomer, unassigned) [Example 214b] | – | IC50 (IC50 μM 1st assay, ThT assay, 1st assay): 13.4 µM; IC50 (IC50 μM 2nd assay, ThT assay, 2nd assay): 7.7 µM
CN1CCC(c2c[nH]c3cc(N4CCc5ccccc5C4)ccc23)CC1 [Example 23] | 97.8 ± 1.5% | –
Cn1c2c(c3ccc(Nc4ccc5c(c4)OCCO5)nc31)CCC2 [Example 173] | 90.1 ± 2.3% | –
COc1ccc(Nc2ccc3c4c(n(C)c3n2)CCC(OC(C)C)C4)cc1OC (stereo not drawn) [Example 131] | 91.4 ± 0.2% | –
c1cc2ccc(Nc3ccc4cc[nH]c4n3)cc2[nH]1 [Example 12] | 75.3 ± 14.5% | –
Fc1ccc(Nc2ccc3[nH]cc(C4CCNCC4)c3c2)cc1F [Example 55] | 75.8 ± 0.8% | –
CN1CCC(c2c[nH]c3cc(Nc4ccc5c(c4)OCCCO5)ccc23)CC1 [Example 78] | 75 ± 1.4% | –
CNC1CCc2c(c3ccc(Nc4cc(F)c(F)c(F)c4)nc3n2C)C1 (stereo not drawn) [Example 30] | 84.3 ± 3.1% | –
CN1CCC(c2c[nH]c3cc(Nc4ccc5c(c4)OCCN5C)ccc23)CC1 [Example 194] | 106.1 ± 0.3% | –
COc1ccc(Nc2ccc3[nH]cc(C4CCN(C)CC4)c3c2)cc1F [Example 101] | 70.2 ± 9.8% | –
Cn1c2c(c3ccc(Nc4ccc5c(c4)OCCO5)nc31)CC(OCCF)CC2 (stereo not drawn) [Example 130] | 91.6 ± 0.2% | –
COc1ccc(Nc2ccc3[nH]c4c(c3c2)CC(N(C)C)CC4)cc1OC (stereo not drawn) [Example 88] | 96.9 ± 2.6% | –
COc1cc(Nc2ccc3c(c2)c2c(n3C)CCS(=O)(=O)C2)ccc1C [Example 178] | 35.4 ± 5.9% | –
CN1CCC(c2cn(C)c3nc(Nc4ccc5c(c4)OCO5)ccc23)CC1 [Example 149] | 84.4 ± 4.1% | –
CN1CCC(c2c[nH]c3cc(Nc4ccc5c(C6CCN(C)CC6)c[nH]c5n4)ccc23)CC1 [Example 148] | 88.7 ± 2.2% | –
CN1CCC(c2c[nH]c3cc(Nc4ccc(F)cc4)ccc23)CC1 [Example 195] | 89.7 ± 2.4% | –
CN1CCC(c2c[nH]c3cc(Nc4ccc5c(C6CCN(C)CC6)cn(C)c5n4)ccc23)CC1 [Example 196] | 80 ± 4.6% | –
CN1CCN(c2ccc(Nc3ccc4c(c3)c3c(n4C)CCS(=O)(=O)C3)cc2)CC1 [Example 182] | 66.1 ± 6.9% | –
CN1CCC(c2cn(C)c3nc(Nc4ccc5c(c4)CN(C)CC5)ccc23)CC1 [Example 152] | 80.8 ± 3.6% | –
CNC1(C)CCc2c(c3ccc(Nc4ccc(OC)c(OC)c4)nc3n2C)C1 (stereo not drawn) [Example 90] | 75.1 ± 0.3% | –
COCCOC1CCc2c(c3ccc(Nc4ccc(F)c(F)c4)nc3n2C)C1 (stereo not drawn) [Example 136] | 88 ± 1.4% | –
c1cc2c(C3CCNCC3)c[nH]c2cc1Nc1ccc2c3c([nH]c2n1)CCC3 [Example 46] | 99.4% | –
Cn1c2c(c3ccc(Nc4ccc(N5CCOCC5)cc4)nc31)CCCC2 [Example 165] | 78.1 ± 0.2% | –
COc1ccc(Nc2ccc3c4c(n(C)c3c2)CCC(OC)C4)cc1OC (stereo not drawn) [Example 123] | 93 ± 2.2% | –
c1cc2ccc(NC3CCNCC3)nc2[nH]1 [Example 43] | 48.4 ± 20.3% | –

SMILES | inhibition at 330 µM [1] | also measured
CN(C)C1CCc2[nH]c3ccc(Nc4ccc(N5CCOCC5)cc4)cc3c2C1 (stereo not drawn) [Example 76] | 96.9 ± 2.3% | –
CN1CCC(c2cn(C)c3nc(Nc4ccc(F)c(F)c4)ccc23)CC1 [Example 151] | 88.5 ± 2.8% | –
Fc1ccc(Nc2ccc3c(C4CCNCC4)c[nH]c3c2)cc1F [Example 52] | 83.6 ± 2.8% | –
c1ccc(CCNc2ccc3cc[nH]c3n2)nc1 [Example 1] | 69.5 ± 4.5% | –
CCOC(=O)N1CCc2c(c3cc(Nc4ccc(F)c(F)c4)ccc3n2C)C1 [Example 199] | 68.6 ± 0.5% | –
COc1ccc(Nc2ccc3[nH]cc(C4CCN(C)CC4)c3c2)cc1OC [Example 100] | 66.6 ± 1.3% | –
CN(C)C(=O)c1cccc(Nc2ccc3cc[nH]c3n2)c1 [Example 7] | – | Inhibition at 330 μM [%] (ThT assay, 330 μM small molecule, 33 μM Aβ1-42 (10:1), 24 hrs at 37° C., mean ± standard deviation of two independent experiments): no inhibition
c1cc2[nH]cc(C3CCNCC3)c2cc1Nc1ccc2c3c([nH]c2n1)CCC3 [Example 47] | 99.1 ± 0.5% | –
CNC1CCc2c(c3ccc(Nc4ccc(N5CCN(C)CC5)cc4)nc3n2C)C1 (stereo not drawn) [Example 83] | 82.7 ± 0.7% | –
COC1CCc2c(c3ccc(Nc4ccc(N5CCOCC5)cc4)nc3n2C)C1 (stereo not drawn) [Example 193] | 54.3 ± 3.4% | –
CNC1CCc2[nH]c3cc(Nc4ccc(OC)c(OC)c4)ccc3c2C1 (stereo not drawn) [Example 120] | 100% | –
COc1ccc(Nc2ccc3c4c(n(C)c3n2)CCCC4)cc1OC [Example 81] | 90.5 ± 0.5% | –
Cn1cc(C2CCNCC2)c2ccc(Nc3cccc(N4CCOCC4)c3)cc21 [Example 70] | 91 ± 1.2% | –
COc1ccc(Nc2ccc3c(C4CCN(C)CC4)cn(C)c3c2)cc1OC [Example 104] | 89.3 ± 10.6% | –
COC1CCc2c(c3ccc(Nc4ccc5c(c4)OCO5)nc3n2C)C1 (stereo not drawn) [Example 205] | 91.7 ± 0.1% | –
c1cc2c(C3CCNCC3)c[nH]c2nc1NCC1CCNCC1 [Example 50] | 67.5 ± 0.1% | –
CNC1CCc2[nH]c3nc(Nc4cc(F)c(F)cc4F)ccc3c2C1 (stereo not drawn) [Example 27] | 86.7 ± 0.8% | –
Cn1cc(C2CCNCC2)c2ccc(Nc3ccc4c(c3)OCO4)cc21 [Example 145] | 88.3 ± 4.9% | –
CN1CCC(c2cn(C)c3nc(Nc4ccc5c(c4)OCCO5)ccc23)CC1 [Example 150] | 83.9 ± 1.5% | –
CNC1CCc2c(c3ccc(Nc4ccc(F)c(OC)c4)nc3n2C)C1 (stereo not drawn) [Example 115] | 94 ± 0.8% | –
c1cc2ccc(Nc3ccc4cc[nH]c4n3)nc2[nH]1 [Example 8] | 74.7 ± 6.8% | –
FC(F)(F)c1ccc(Nc2ccc3[nH]cc(C4CCNCC4)c3c2)cn1 [Example 56] | 58.5 ± 2.7% | –
COC1CCc2[nH]c3cc(Nc4ccc5c(c4)OCCO5)ccc3c2C1 (stereo not drawn) [Example 127] | 91.5 ± 2.5% | –
CN1CCC(c2c[nH]c3cc(Nc4cc(F)c(F)cc4F)ccc23)CC1 [Example 79] | 91 ± 4.2% | –
N#Cc1c[nH]c2nc(Nc3cnc4c(C5CCNCC5)c[nH]c4c3)ccc12 [Example 34] | 79.2 ± 16.2% | –

SMILES | inhibition at 330 µM [1] | also measured
c1ccc2c(c1)CCN(c1ccc3c(C4CCNCC4)c[nH]c3c1)C2 [Example 72] | 97.9 ± 0.5% | –
CNC1CCc2[nH]c3ccc(NC4CCN(C)CC4)cc3c2C1 (stereo not drawn) [Example 109] | 63.6 ± 2% | –
CNC1CCc2c(c3ccc(Nc4ccc5c(c4)NC(=O)CO5)nc3n2C)C1 (stereo not drawn) [Example 86] | 96.6 ± 0.7% | –
FC1(CNc2ccc3c(C4CCNCC4)c[nH]c3n2)CCNCC1 [Example 37] | 47.4 ± 5.2% | –
c1cc(N2CCOCC2)ccc1Nc1ccc2c(c1)OCO2 [Example 188] | 83.3 ± 6% | –
CNC1CCc2[nH]c3nc(Nc4ccc(F)c(F)c4)ccc3c2C1 (stereo not drawn) [Example 24] | 77.4 ± 15.6% | –
CNC1CCc2[nH]c3cc(Nc4ccc5c(c4)OCCO5)ccc3c2C1 (stereo not drawn) [Example 132] | 99.4 ± 0.8% | –
CNC1CCc2c(c3cc(Nc4ccc(OC)c(OC)c4)cnc3n2C)C1 (stereo not drawn) [Example 135] | 51.9 ± 5.5% | –
CN1CCc2c(c3cc(Nc4ccc(F)c(F)c4)ccc3n2C)C1 [Example 206] | 94.5 ± 0.7% | –
CN1CCC(c2c[nH]c3cc(Nc4ccc5ncn(C)c5c4)ccc23)CC1 [Example 200] | 67.4 ± 3.4% | –
Fc1ccc(Nc2ccc3cc[nH]c3n2)cc1F [Example 3] | 56.6 ± 23% | –
c1nc2[nH]cc(C3CCNCC3)c2cc1Nc1ccc2c3c([nH]c2n1)CCC3 [Example 51] | 95.5 ± 1% | –
CN1CCc2ccc(Nc3ccc4c(c3)c3c(n4C)CCS(=O)(=O)C3)cc2C1 [Example 180] | 50.2 ± 0.9% | –
Cn1cnc2ccc(Nc3ccc4c5c(n(C)c4n3)CCC5)cc21 [Example 175] | 75.5 ± 7.8% | –
Cn1cc(C2CCNCC2)c2ccc(Nc3ccc(N4CCOCC4)cc3)nc21 [Example 71] | 90.7 ± 3% | –
COC1CCc2c(c3ccc(Nc4ccc(F)c(F)c4)nc3n2C)C1 (stereo not drawn) [Example 204] | 93.5 ± 0.4% | –
Cn1c2c(c3ccc(N4CCOCC4)nc31)CCCC2 [Example 163] | 32.7 ± 0.9% | –
CN1CCC(c2c[nH]c3ccc(Nc4ccc5c(C6CCNCC6)c[nH]c5c4)cc23)CC1 [Example 64] | 95.4 ± 0.3% | –
COC1CCc2c(c3cc(Nc4ccc5c(c4)OCO5)ccc3n2C)C1 (stereo not drawn) [Example 125] | 84.2 ± 5.8% | –
CN1CCN(c2ccc(Nc3ccc4[nH]c5c(c4c3)CC(N(C)C)CC5)cc2)CC1 (stereo not drawn) [Example 77] | 98 ± 0.6% | –
Cn1cnc2ccc(Nc3ccc4c(c3)c3c(n4C)CCS(=O)(=O)C3)cc21 [Example 181] | 6.6 ± 4.3% | –
CNC1CCc2[nH]c3ccc(Nc4ccc(OC)c(OC)c4)cc3c2C1 (stereo not drawn) [Example 106] | 86.4 ± 3.8% | –
CN1CCC(c2c[nH]c3ccc(Nc4ccc(F)c(F)c4)cc23)CC1 [Example 21] | 74 ± 2.7% | –
CNC1CCc2c(c3ccc(Nc4cc(F)c(F)cc4F)nc3n2C)C1 (stereo not drawn) [Example 28] | 91.4 ± 2.9% | –
